In US20260306491A1, “EGFR INHIBITOR FOR TREATING CANCERS COMPRISING ATYPICAL EGFR MUTATIONS” (ORIC Pharmaceuticals, Inc., priority 2023, published 2026):
“And” between values parts separate entries of the source, which are not always exact repeats. Identical values can stand only once.

What was measured:
Type in all cases: in vivo, human
[1] = tested on: HER2 exon 20 insertion mutated NSCLC; experiment: Clinical study: duration of treatment and antitumor response, HER2 exon 20 insertion mutated NSCLC (Example 10)
Experimental: (§1) A clinical study was conducted using Compound I in human subjects having non-small cell lung cancer (NSCLC) comprising EGFR exon 20 insertion mutations, HER2 exon 20 insertion mutations, or HER2 amplification or overexpression. A total of 50 human subjects having non-small cell lung cancer comprising one or more EGFR exon 20 insertion mutations, HER2 exon 20 insertion mutations, or HER2 amplification or overexpression were enrolled in the study as of Jul. 31, 2023 with data collected as of Sep. 26, 2023. The subjects were enrolled into one of ten dosing cohorts that were each orally administered Compound I in the form of a hemifumarate salt as shown in Table 13 (QD=once per day; BID=twice per day).
Duration of treatment and antitumor responses achieved in evaluable subjects with HER2 exon 20 insertion mutate NSCLC (dose level greater than or equal to 45 mg TDD and at least one post-baseline tumor assessment) who were administered Compound I in the form of a hemifumarate salt are set forth in Tables 21 and 22, respectively.

[2] = tested on: HER2 exon 20 mutated NSCLC; experiment: Clinical evaluation in one subject (Example 12); details: hemifumarate, 30 mg BID
Experimental: A subject having HER2 exon 20 mutated NSCLC was enrolled in a clinical study relating to Compound I. The cancer in the subject had been previously treated with pemetrexed/cisplatin, ipilimumab/nivolumab/carboplatin, and pemetrexed/carboplatin/pembrolizumab. The subject was enrolled in a dosing cohort that received 30 mg BID of Compound I in the form of a hemifumarate salt.

[3] = Clinical study in NSCLC subjects: treatment-related adverse events (Example 10); details: oral hemifumarate
Experimental: as §1
The TRAEs that occurred in equal to or greater than 10% of subjects in the study are set forth in Tables 15 to 18 (TDD=total daily dose; n=number; N/A=not applicable; the term rash includes the following terms: acne, dermatitis, dermatitis acneiform, eczema, hand dermatitis, and rash).

With `C=CC(=O)Nc1cc(Nc2cc(N3OCC[C@@H]3c3cc(F)cc(F)c3)ncn2)c(OC)cc1N1CCC(N2CCN(C3CC3)CC2)CC1` [Compound I, N-[2-[4-(4-cyclopropyl-1-piperazinyl)-1-piperidinyl]-5-[[6-[(3R)-3-(3,5-difluorophenyl)-2-isoxazolidinyl]-4-pyrimidinyl]amino]-4-methoxyphenyl]-2-propenamide] the Duration of treatment ([1]; oral hemifumarate, dosing cohort 30 BID, one value per subject) was 79 days and Ongoing (3×) and 54 days, the Duration of treatment ([1]; oral hemifumarate, dosing cohort 45 QD, one value per subject) was “Ongoing” and the Duration of treatment ([1]; oral hemifumarate, dosing cohort 60 QD, one value per subject) was 28 days. The Duration of treatment ([1]; oral hemifumarate, dosing cohort 75 QD, one value per subject) was 179 days and 47 days, the Duration of treatment ([1]; oral hemifumarate, dosing cohort 90 QD, one value per subject) was “Ongoing” and the “Best percent change in the sum of target lesions from baseline” value ([1]; oral hemifumarate, ≥45 mg TDD, one value per subject (subjects 1 to 13)) was 0% (2×) and −3% and −19% and −31% and −33% and −34% and −55% and −100% and 31% and 11% and 9% and 5%. For the same compound, the Duration of treatment ([1]; po) was 2 days, the Non-target lesions response ([2]; after cycle 1) was “non-CR/non-PD” and the “Reduction of all target lesions” value ([2]; after cycle 1 (28 days)) was 100%. The Tumor response ([2]; after cycle 1, confirmed end of cycle 2) was “partial response”, the “Duration of dosing at data cutoff” value ([2]; continuing) was “on dosing cycle 3” and the EGFR-related adverse events ([2]; data cutoff Sep. 26, 2023) was “Grade 2 rash and Grade 2 nausea”. The “Reduction of all target lesions” value ([2]; end of cycle 2) was 100%, the “Dose reductions and discontinuations” value [3] was “infrequent dose reductions and discontinuations” and the “Decreased appetite, Grade 1” value ([3]; 45 mg-60 mg TDD (n = 23)) was “(22) %”. For the same compound, the “Decreased appetite, Grade 1, number of subjects” value ([3]; 45 mg-60 mg TDD (n = 23)) was 5 n, the “Decreased appetite, Grade 2” value ([3]; 45 mg-60 mg TDD (n = 23)) was “(4) %” and the “Decreased appetite, Grade 2, number of subjects” value ([3]; 45 mg-60 mg TDD (n = 23)) was 1 n. For the same compound, the “Diarrhea, Grade 1” value ([3]; 45 mg-60 mg TDD (n = 23)) was “(30) %”, the “Diarrhea, Grade 1, number of subjects” value ([3]; 45 mg-60 mg TDD (n = 23)) was 7 n and the “Diarrhea, Grade 2” value ([3]; 45 mg-60 mg TDD (n = 23)) was “(9) %”. The “Diarrhea, Grade 2, number of subjects” value ([3]; 45 mg-60 mg TDD (n = 23)) was 2 n, the “Diarrhea, Grade 3” value ([3]; 45 mg-60 mg TDD (n = 23)) was 9% and the “Diarrhea, Grade 3, number of subjects” value ([3]; 45 mg-60 mg TDD (n = 23)) was 2 n. The Dose discontinuations ([3]; 45 mg-60 mg TDD (n = 23)) was 4%, the “Dose discontinuations, number” value ([3]; 45 mg-60 mg TDD (n = 23)) was 1 n and the Dose reductions ([3]; 45 mg-60 mg TDD (n = 23)) was 13%. The “Dose reductions, number” value ([3]; 45 mg-60 mg TDD (n = 23)) was 3 n, the “Nausea, Grade 1” value ([3]; 45 mg-60 mg TDD (n = 23)) was “(9) %” and the “Nausea, Grade 1, number of subjects” value ([3]; 45 mg-60 mg TDD (n = 23)) was 2 n. For the same compound, the “Nausea, Grade 2” value ([3]; 45 mg-60 mg TDD (n = 23)) was “(9) %”, the “Nausea, Grade 2, number of subjects” value ([3]; 45 mg-60 mg TDD (n = 23)) was 2 n and the “Paronychia, Grade 1” value ([3]; 45 mg-60 mg TDD (n = 23)) was “(17) %”. The “Paronychia, Grade 1, number of subjects” value ([3]; 45 mg-60 mg TDD (n = 23)) was 4 n, the “Paronychia, Grade 2” value ([3]; 45 mg-60 mg TDD (n = 23)) was “(17) %” and the “Paronychia, Grade 2, number of subjects” value ([3]; 45 mg-60 mg TDD (n = 23)) was 4 n. For the same compound, the “Pruritis, Grade 1” value ([3]; 45 mg-60 mg TDD (n = 23)) was “(17) %”, the “Pruritis, Grade 1, number of subjects” value ([3]; 45 mg-60 mg TDD (n = 23)) was 4 n and the “Pruritis, Grade 2” value ([3]; 45 mg-60 mg TDD (n = 23)) was “(9) %”. For the same compound, the “Pruritis, Grade 2, number of subjects” value ([3]; 45 mg-60 mg TDD (n = 23)) was 2 n, the “Pruritis, Grade 3” value ([3]; 45 mg-60 mg TDD (n = 23)) was 4% and the “Pruritis, Grade 3, number of subjects” value ([3]; 45 mg-60 mg TDD (n = 23)) was 1 n. For the same compound, the “Rash, Grade 1” value ([3]; 45 mg-60 mg TDD (n = 23)) was “(26) %”, the “Rash, Grade 1, number of subjects” value ([3]; 45 mg-60 mg TDD (n = 23)) was 6 n and the “Rash, Grade 2” value ([3]; 45 mg-60 mg TDD (n = 23)) was “(26) %”. The “Rash, Grade 2, number of subjects” value ([3]; 45 mg-60 mg TDD (n = 23)) was 6 n, the “Stomatitis, Grade 1” value ([3]; 45 mg-60 mg TDD (n = 23)) was “(9) %” and the “Stomatitis, Grade 1, number of subjects” value ([3]; 45 mg-60 mg TDD (n = 23)) was 2 n. For the same compound, the “Stomatitis, Grade 2” value ([3]; 45 mg-60 mg TDD (n = 23)) was “(9) %”, the “Stomatitis, Grade 2, number of subjects” value ([3]; 45 mg-60 mg TDD (n = 23)) was 2 n and the “Stomatitis, Grade 3” value ([3]; 45 mg-60 mg TDD (n = 23)) was 4%. The “Stomatitis, Grade 3, number of subjects” value ([3]; 45 mg-60 mg TDD (n = 23)) was 1 n, the “Vomiting, Grade 1” value ([3]; 45 mg-60 mg TDD (n = 23)) was “(9) %” and the “Vomiting, Grade 1, number of subjects” value ([3]; 45 mg-60 mg TDD (n = 23)) was 2 n. For the same compound, the “Decreased appetite, Grade 2” value ([3]; <45 mg TDD (n = 18)) was “(6) %”, the “Decreased appetite, Grade 2, number of subjects” value ([3]; <45 mg TDD (n = 18)) was 1 n and the “Diarrhea, Grade 1” value ([3]; <45 mg TDD (n = 18)) was “(11) %”. For the same compound, the “Diarrhea, Grade 1, number of subjects” value ([3]; <45 mg TDD (n = 18)) was 2 n, the “Diarrhea, Grade 2” value ([3]; <45 mg TDD (n = 18)) was “(11) %” and the “Diarrhea, Grade 2, number of subjects” value ([3]; <45 mg TDD (n = 18)) was 2 n. For the same compound, the Dose discontinuations ([3]; <45 mg TDD (n = 18)) was 9%, the “Dose discontinuations, number” value ([3]; <45 mg TDD (n = 18)) was 1 n and the Dose reductions ([3]; <45 mg TDD (n = 18)) was 18%. For the same compound, the “Dose reductions, number” value ([3]; <45 mg TDD (n = 18)) was 2 n, the “Nausea, Grade 1” value ([3]; <45 mg TDD (n = 18)) was “(6) %” and the “Nausea, Grade 1, number of subjects” value ([3]; <45 mg TDD (n = 18)) was 1 n. The “Paronychia, Grade 1” value ([3]; <45 mg TDD (n = 18)) was “(6) %”, the “Paronychia, Grade 1, number of subjects” value ([3]; <45 mg TDD (n = 18)) was 1 n and the “Paronychia, Grade 2” value ([3]; <45 mg TDD (n = 18)) was “(11) %”.
